Results on 27 compounds are retold here after ChEMBL document CHEMBL4184158, “Azolylthioacetamides as a potent scaffold for the development of metallo-β-lactamase inhibitors” (Bioorg Med Chem Lett, 2017).

In test [1] the test system is Bacteria. As to the kind of experiment: Inhibition of bacterial metallo-beta-lactamase L1 expressed in Escherichia coli […] cells at 500 uM using imipenem as substrate by UV spectrometry.
In test [2] the test system is Bacteria. Description: Inhibition of bacterial NDM1 expressed in Escherichia coli DH5R transformed cells at 500 uM using imipenem as substrate by UV spectrometry.
Test [3] in a line: Inhibition of bacterial ImiS expressed in Escherichia coli BL21 (DE3) transformed cells using imipenem as substrate by UV spectrometry. The arrangement: species or system Bacteria.
The test system of test [4] is Bacteria. Description: Inhibition of bacterial NDM1 expressed in Escherichia coli BL21 (DE3) transformed cells assessed as potentiation of imipenem-induced antibacterial activity by measuring imipenem MIC after 20 hrs by broth microdilution assay (reference value: 16 ug/ml). For orientation: Broth dilution looks for growth in wells or tubes with falling amounts of substance.

Test [5] deals with Bacteria. As to the kind of experiment: Inhibition of bacterial ImiS expressed in Escherichia coli BL21 (DE3) transformed cells assessed as potentiation of imipenem-induced antibacterial activity by measuring imipenem MIC after 20 hrs by broth microdilution assay (reference value: 1 ug/ml).
For a further test, the system named is Escherichia coli. As to the kind of experiment: Antibacterial activity against Escherichia coli BL21(DE3) at 16 ug/ml after 20 hrs by broth microdilution assay. In kind it is functional, organism-based.
The nature of test [6]: Inhibition of bacterial NDM1 expressed in Escherichia coli DH5R transformed cells using imipenem as substrate by UV spectrometry. Further details: species or system Bacteria.
For test [7], the system named is Bacteria. As to the kind of experiment: Inhibition of bacterial ImiS expressed in Escherichia coli BL21 (DE3) transformed cells at 500 uM using imipenem as substrate by UV spectrometry.
Test [8] deals with Bacteria. As to the kind of experiment: Competitive inhibition of bacterial ImiS expressed in Escherichia coli BL21 (DE3) transformed cells using imipenem as substrate after 5 mins by Lineweaver-Burk plot method.
In test [9] the test system is Bacteria. Description: Uncompetitive inhibition of bacterial ImiS expressed in Escherichia coli BL21 (DE3) transformed cells using imipenem as substrate after 5 mins by Lineweaver-Burk plot method.

Calls of active or inactive are those of the source. No cut-off for these calls is given here.

For the compound `Nn1c(Cc2cccs2)nnc1SCC(=O)Nc1nc2ccccc2o1`, the inhibition entry in the test on Bacteria [1] and in the test on Bacteria [2] was “inactive” throughout. For the same compound, in test [3], the IC50 (usually the concentration at which inhibition is half-maximal) amounted to 53000 nM. The MIC (as a rule, the lowest concentration found to suppress growth) with Bacteria [4] came to 16 µg/mL; in the test with Bacteria [5] it was 0.5 µg/mL. Besides, the outcome in the test on Escherichia coli was inactive.

Take `Nn1c(Cc2ccccc2)nnc1SCC(=O)Nc1nc2ccccc2o1`: the inhibition entry with Bacteria [1] and in the test on Bacteria [2] was “inactive” throughout. Further, in [3], the IC50 is 29000 nM. Besides, the MIC in the test on Bacteria [4] is 16 µg/mL; in the test with Bacteria [5], 0.5 µg/mL. Further, the outcome with Escherichia coli was inactive.

For `O=C(CSc1nnc(CCc2nnc(SCC(=O)Nc3nc4ccccc4[nH]3)s2)s1)Nc1nc2ccccc2[nH]1`, the inhibition entry in the test with Bacteria [1] and in the test on Bacteria [2] was “inactive” in each case. Besides, inhibition in [3] was half-maximal at 390 nM (IC50). The MIC was determined as 16 µg/mL in the test on Bacteria [4] and 0.25 µg/mL in the test with Bacteria [5]. Besides, the outcome with Escherichia coli was inactive.

With `O=C(CSc1nnc(-c2ccccc2O)o1)Nc1nc2ccccc2[nH]1`, the inhibition result with Bacteria [1] and in the test with Bacteria [2] was “inactive” each time. In test [3], this compound came in with an IC50 of 630 nM. For the same compound, the MIC with Bacteria [4] is 16 µg/mL; in the test on Bacteria [5], 0.5 µg/mL. In addition, the result in the test with Escherichia coli was inactive.

Take `O=C(CSc1nnc(-c2cccc([N+](=O)[O-])c2)s1)Nc1nc2ccccc2o1`: the inhibition entry with Bacteria [1] and in the test with Bacteria [2] was “inactive” throughout. The IC50 in [3] is 133000 nM. The MIC worked out at 16 µg/mL in the test on Bacteria [4] and 0.5 µg/mL in the test with Bacteria [5]. Moreover, the outcome with Escherichia coli was inactive.

As to `O=C(CSc1nnc(Cc2ccccc2)s1)Nc1nc2ccccc2[nH]1`, the inhibition result in the test on Bacteria [1] and in the test with Bacteria [2] was “inactive” throughout. Further, the IC50 in test [3] came to 18000 nM. Moreover, the MIC in the test with Bacteria [4] worked out at 16 µg/mL; in the test with Bacteria [5], 0.5 µg/mL. The outcome with Escherichia coli was inactive.

With `O=C(CSc1nnc(Cc2ccccc2)o1)Nc1nc2ccccc2[nH]1`, the inhibition entry in the test on Bacteria [1] and in the test on Bacteria [2] was “inactive” throughout. In test [3], the half-maximal inhibitory concentration (IC50) came to 3000 nM. Also, the values for the MIC in the test on Bacteria [4] and with Bacteria [5] were 16 µg/mL and 0.25 µg/mL, respectively. Moreover, in the test on Escherichia coli, the outcome was inactive.

Consider `O=C(CSc1nnc(-c2ccccc2O)s1)Nc1nc2ccccc2o1`, for which the inhibition entry in the test with Bacteria [1] and in the test on Bacteria [2] was “inactive” each time. The compound further had an IC50 in [3] of 196000 nM. In addition, the MIC was 16 µg/mL in the test on Bacteria [4] and 0.5 µg/mL in the test on Bacteria [5]. In the test with Escherichia coli, the outcome was inactive.

As to `O=C(CSc1nnc(Cc2ccccc2)o1)Nc1nc2ccc([N+](=O)[O-])cc2[nH]1`, the inhibition entry with Bacteria [1] and in the test on Bacteria [7] was “inactive” each time. The MIC in the test on Bacteria [4] was determined as 4 µg/mL; with Bacteria [5], 1 µg/mL. The same compound had an IC50 in test [6] of 500 nM. Moreover, the result in the test with Escherichia coli was inactive.

With `Nn1c(Cc2cccs2)nnc1SCC(=O)Nc1nc2ccccc2[nH]1`, the inhibition entry in the test on Bacteria [1] and in the test on Bacteria [2] was “inactive” throughout. Also, in [3], the IC50 was found to be 77 nM. The same compound displayed a Kic in the test on Bacteria [8] of 110 nM. In addition, in the test on Bacteria [9], the Kiuc came to 80 nM. Moreover, the MIC is 16 µg/mL in the test with Bacteria [4] and 0.25 µg/mL with Bacteria [5]. Moreover, the result in the test with Escherichia coli was inactive.

As for `O=C(CSc1nnc(-c2ccccc2O)s1)Nc1nc2ccccc2[nH]1`, the inhibition entry in the test with Bacteria [1] and in the test with Bacteria [2] was “inactive” throughout. Further, the midpoint of inhibition in [3], the IC50, lay at 330 nM. In addition, the MIC in the test on Bacteria [4] was 16 µg/mL; in the test with Bacteria [5], 0.5 µg/mL. For the same compound, the outcome with Escherichia coli was inactive.

For the compound `O=C(CSc1nnc(-c2ccccc2O)s1)Nc1nc2ccc([N+](=O)[O-])cc2[nH]1`, the inhibition result in the test with Bacteria [1] and with Bacteria [7] was “inactive” in each case. Also, the MIC was 8 µg/mL in the test on Bacteria [4] and 1 µg/mL in the test on Bacteria [5]. This compound also showed an IC50 in test [6] of 6400 nM. In the test on Escherichia coli, the outcome was inactive.

Consider `Nc1ccccc1-c1nnc(SCC(=O)Nc2nc3ccc([N+](=O)[O-])cc3[nH]2)n1N`, for which the inhibition result in the test with Bacteria [1] and in the test with Bacteria [7] was “inactive” each time. The MIC turned out to be 8 µg/mL in the test on Bacteria [4] and 1 µg/mL in the test on Bacteria [5]. Further, in test [6], half-maximal inhibition (IC50) required 1100 nM. The outcome in the test on Escherichia coli was inactive.

Regarding `Nc1ccccc1-c1nnc(SCC(=O)Nc2nc3ccc([N+](=O)[O-])cc3[nH]2)s1`, the inhibition result in the test on Bacteria [1] and in the test on Bacteria [7] was “inactive” each time. Moreover, the MIC is 8 µg/mL in the test on Bacteria [4] and 2 µg/mL with Bacteria [5]. This compound also displayed an IC50 in [6] of 2500 nM. The outcome with Escherichia coli was inactive.

With `Nc1ccccc1-c1nnc(SCC(=O)Nc2nc3ccccc3[nH]2)s1`, the inhibition entry in the test on Bacteria [1] and with Bacteria [2] was “inactive” in each case. Further, the IC50 in test [3] was found to be 1200 nM. Further, the MIC in the test on Bacteria [4] was found to be 32 µg/mL; in the test with Bacteria [5], 0.5 µg/mL. Further, in the test on Escherichia coli, the outcome was inactive.

For the compound `Nn1c(Cc2ccccc2)nnc1SCC(=O)Nc1nc2ccc([N+](=O)[O-])cc2[nH]1`, the inhibition entry in the test on Bacteria [1] and in the test on Bacteria [7] was “inactive” each time. Further, the MIC in the test on Bacteria [4] amounted to 4 µg/mL; in the test on Bacteria [5], 1 µg/mL. The compound also yielded an IC50 in test [6] of 730 nM. Also, in the test on Escherichia coli, the result was inactive.

`O=C(CSc1nnc(-c2cccc([N+](=O)[O-])c2)s1)Nc1nc2ccc([N+](=O)[O-])cc2[nH]1`: the inhibition result in the test with Bacteria [1] and in the test with Bacteria [7] was “inactive” in each case. The MIC was 8 µg/mL in the test on Bacteria [4] and 1 µg/mL in the test on Bacteria [5]. In test [6], this compound registered an IC50 of 5100 nM. Also, in the test on Escherichia coli, the outcome was inactive.

As to `O=C(CSc1nnc(-c2ccccc2O)o1)Nc1nc2ccc([N+](=O)[O-])cc2[nH]1`, the inhibition entry in the test with Bacteria [1] and with Bacteria [7] was “inactive” in each case. For the same compound, the values for the MIC with Bacteria [4] and with Bacteria [5] were 8 µg/mL and 1 µg/mL, respectively. The compound further gave an IC50 in test [6] of 1300 nM. The outcome in the test on Escherichia coli was inactive.

`Nc1ccccc1-c1nnc(SCC(=O)Nc2nc3ccccc3[nH]2)n1N`: the inhibition entry with Bacteria [1] and with Bacteria [2] was “inactive” in each case. Half-maximal inhibition in [3] (IC50) was put at 15 nM. For the same compound, the Kic in the test on Bacteria [8] was found to be 22 nM. This compound returned a Kiuc in the test with Bacteria [9] of 11 nM. Moreover, the MIC worked out at 16 µg/mL in the test on Bacteria [4] and 0.25 µg/mL in the test with Bacteria [5]. Moreover, the result in the test with Escherichia coli was inactive.

Consider `O=C(CSc1nnc(Cc2ccccc2)s1)Nc1nc2ccccc2o1`, for which the inhibition entry with Bacteria [1] and in the test on Bacteria [2] was “inactive” each time. For the same compound, the IC50 in test [3] came to 259000 nM. The MIC with Bacteria [4] came to 16 µg/mL; in the test with Bacteria [5], 0.5 µg/mL. The outcome in the test on Escherichia coli was inactive.

Turning to `Nc1ccccc1-c1nnc(SCC(=O)Nc2nc3ccccc3[nH]2)[nH]1`, the inhibition entry in the test with Bacteria [1] and in the test with Bacteria [2] was “inactive” each time. In [3], the IC50 is 940 nM. Besides, the results for the minimum inhibitory concentration (MIC) with Bacteria [4] and with Bacteria [5] were 16 µg/mL and 0.5 µg/mL, respectively. Moreover, the result in the test with Escherichia coli was inactive.

Take `Nn1c(Cc2ccccc2)nnc1SCC(=O)Nc1nc2ccccc2[nH]1`: the inhibition entry in the test on Bacteria [1] and with Bacteria [2] was “inactive” throughout. In [3], this compound had an IC50 of 270 nM. Besides, the MIC amounted to 16 µg/mL in the test with Bacteria [4] and 0.5 µg/mL in the test on Bacteria [5]. Moreover, the result with Escherichia coli was inactive.

In the case of `O=C(CSc1nnc(-c2cccc([N+](=O)[O-])c2)s1)Nc1nc2ccccc2[nH]1`, the inhibition result in the test with Bacteria [1] and with Bacteria [2] was “inactive” in each case. This compound also showed an IC50 in test [3] of 1800 nM. Besides, the minimum inhibitory concentration (MIC) stood at 16 µg/mL in the test with Bacteria [4] and 0.5 µg/mL with Bacteria [5]. In the test on Escherichia coli, the outcome was inactive.

With `O=C(CSc1nnc(Cc2ccccc2)o1)Nc1nc2ccccc2o1`, the inhibition entry in the test with Bacteria [1] and with Bacteria [2] was “inactive” throughout. This compound also returned an IC50 in test [3] of 384000 nM. The values for the MIC with Bacteria [4] and in the test with Bacteria [5] were 32 µg/mL and 0.5 µg/mL, respectively. Besides, the result in the test with Escherichia coli was inactive.

With `O=C(CSc1nnc(-c2ccccc2O)[nH]1)Nc1nc2ccc([N+](=O)[O-])cc2[nH]1`, the inhibition result in the test with Bacteria [1] and in the test with Bacteria [7] was “inactive” each time. Moreover, the MIC in the test on Bacteria [4] amounted to 8 µg/mL; in the test on Bacteria [5] it was 1 µg/mL. The compound further registered an IC50 in test [6] of 5900 nM. For the same compound, the outcome with Escherichia coli was inactive.

`O=C(CSc1nnc(-c2cccc([N+](=O)[O-])c2)[nH]1)Nc1nc2ccccc2o1`: the inhibition entry in the test on Bacteria [1] and in the test on Bacteria [2] was “inactive” each time. In test [3], this compound yielded an IC50 of 378000 nM. Also, the MIC in the test on Bacteria [4] was found to be 16 µg/mL; with Bacteria [5], 0.25 µg/mL. Also, in the test with Escherichia coli, the result was inactive.

Regarding `Nc1ccccc1-c1nnc(SCC(=O)Nc2nc3ccccc3[nH]2)o1`, the inhibition entry in the test with Bacteria [1] and with Bacteria [2] was “inactive” throughout. The same compound returned an IC50 in test [3] of 1700 nM. The results for the MIC with Bacteria [4] and in the test on Bacteria [5] were 16 µg/mL and 0.25 µg/mL, respectively. Also, the outcome with Escherichia coli was inactive.
